Data taken from ChEMBL document CHEMBL3774384, “Synthesis of fusidic acid bioisosteres as antiplasmodial agents and molecular docking studies in the binding site of elongation factor-G” (Medchemcomm, 2015).

How the values were obtained:
[1] = Selectivity index, ratio of IC50 for CHO cells to IC50 for Plasmodium falciparum NF54; assay type: toxicity, cell-based; conditions: hamster, read-out: Ratio IC50
[2] = system: CHO; test: Cytotoxicity against CHO assessed as cell viability after 48 hrs by MTT assay; assay type: cell-based; conditions: Cricetulus griseus
[3] = system: Plasmodium falciparum; test: Antiplasmodial activity against chloroquine sensitive Plasmodium falciparum NF54 infected in human RBC after 48 hrs by [3H]hypoxanthine incorporation assay; assay type: functional, organism-based
[4] = Stability in RPMI medium supplemented with HEPES, NaHCO3, Neomycin and Albumax II after 48 hrs; assay type: physicochemical
[5] = system: Plasmodium falciparum; test: Antiplasmodial activity against Plasmodium falciparum D10 infected in human RBC after 48 to 96 hrs by SYBR Green I dye-based fluorescence assay; assay type: functional, organism-based

IC50 [3]	Compound	selectivity ratio [1]	IC50 [2]	Stability [4]	IC50 [5]
9.2 µM	CC(=O)O[C@H]1C[C@@]2(C)[C@@H](C[C@@H](O)[C@H]3[C@@]4(C)CC[C@@H](O)[C@@H](C)[C@@H]4CC[C@@]32C)/C1=C(\CCC=C(C)C)c1n[nH]c(=O)o1	9	82 µM	–	–
12.4 µM	CCS(=O)(=O)NNC(=O)/C(CCC=C(C)C)=C1\[C@@H](OC(C)=O)C[C@@]2(C)[C@H]1C[C@@H](O)[C@H]1[C@@]3(C)CC[C@@H](O)[C@@H](C)[C@@H]3CC[C@@]12C	6	77.3 µM	–	–
10.8 µM	CC(=O)O[C@H]1C[C@@]2(C)[C@@H](C[C@@H](O)[C@H]3[C@@]4(C)CC[C@@H](O)[C@@H](C)[C@@H]4CC[C@@]32C)/C1=C(\CCC=C(C)C)C(=O)NC#N	> 17	> 185 µM	–	–
1.9 µM	CCc1noc(/C(CCC=C(C)C)=C2\[C@@H](OC(C)=O)C[C@@]3(C)[C@H]2C[C@@H](O)[C@H]2[C@@]4(C)CC[C@@H](O)[C@@H](C)[C@@H]4CC[C@@]23C)n1	38	71.7 µM	–	–
35.9 µM	CC(=O)O[C@H]1C[C@@]2(C)[C@@H](C[C@@H](O)[C@H]3[C@@]4(C)CC[C@@H](O)[C@@H](C)[C@@H]4CC[C@@]32C)/C1=C(\CCC=C(C)C)C(N)=O	3	113 µM	–	–
2.1 µM	CCCc1noc(/C(CCC=C(C)C)=C2\[C@@H](OC(C)=O)C[C@@]3(C)[C@H]2C[C@@H](O)[C@H]2[C@@]4(C)CC[C@@H](O)[C@@H](C)[C@@H]4CC[C@@]23C)n1	32	68.2 µM	–	–
1.7 µM	CC(=O)O[C@H]1C[C@@]2(C)[C@@H](C[C@@H](O)[C@H]3[C@@]4(C)CC[C@@H](O)[C@@H](C)[C@@H]4CC[C@@]32C)/C1=C(\CCC=C(C)C)c1nc(-c2ccc(F)cc2)no1	46	77.4 µM	–	–
31.3 µM	CC(=O)O[C@H]1C[C@@]2(C)[C@@H](C[C@@H](O)[C@H]3[C@@]4(C)CC[C@@H](O)[C@@H](C)[C@@H]4CC[C@@]32C)/C1=C(\CCC=C(C)C)C(=O)NNS(=O)(=O)c1ccc(Cl)cc1	2	53.2 µM	–	–
8.4 µM	CC(=O)O[C@H]1C[C@@]2(C)[C@@H](C[C@@H](O)[C@H]3[C@@]4(C)CC[C@@H](O)[C@@H](C)[C@@H]4CC[C@@]32C)/C1=C(\CCC=C(C)C)C(=O)NNC(=O)c1cccs1	9	78.8 µM	–	–
7.3 µM	CC(=O)O[C@H]1C[C@@]2(C)[C@@H](C[C@@H](O)[C@H]3[C@@]4(C)CC[C@@H](O)[C@@H](C)[C@@H]4CC[C@@]32C)/C1=C(\CCC=C(C)C)C(=O)NS(=O)(=O)c1ccc(F)c(F)c1	11	81.4 µM	–	–
3.8 µM	CC(=O)O[C@H]1C[C@@]2(C)[C@@H](C[C@@H](O)[C@H]3[C@@]4(C)CC[C@@H](O)[C@@H](C)[C@@H]4CC[C@@]32C)/C1=C(\CCC=C(C)C)c1nc(C)no1	13	47.8 µM	–	–
8 µM	CCCCS(=O)(=O)NNC(=O)/C(CCC=C(C)C)=C1\[C@@H](OC(C)=O)C[C@@]2(C)[C@H]1C[C@@H](O)[C@H]1[C@@]3(C)CC[C@@H](O)[C@@H](C)[C@@H]3CC[C@@]12C	6	49.9 µM	–	–
21.3 µM	CC(=O)O[C@H]1C[C@@]2(C)[C@@H](C[C@@H](O)[C@H]3[C@@]4(C)CC[C@@H](O)[C@@H](C)[C@@H]4CC[C@@]32C)/C1=C(\CCC=C(C)C)C(=O)NN	5	112 µM	–	–
7 µM	CC(=O)O[C@H]1C[C@@]2(C)[C@@H](C[C@@H](O)[C@H]3[C@@]4(C)CC[C@@H](O)[C@@H](C)[C@@H]4CC[C@@]32C)/C1=C(\CCC=C(C)C)c1n[nH]c(=S)o1	10	70 µM	–	–
> 15 µM	CC(=O)O[C@H]1C[C@@]2(C)[C@@H](C[C@@H](O)[C@H]3[C@@]4(C)CC[C@@H](O)[C@@H](C)[C@@H]4CC[C@@]32C)/C1=C(\CCC=C(C)C)C(=O)NS(C)(=O)=O	–	> 169 µM	–	–
> 15 µM	CC(=O)O[C@H]1C[C@@]2(C)[C@@H](C[C@@H](O)[C@H]3[C@@]4(C)CC[C@@H](O)[C@@H](C)[C@@H]4CC[C@@]32C)/C1=C(\CCC=C(C)C)C(=O)Nc1nn[nH]n1	–	> 171 µM	–	–
> 15 µM	CC(=O)O[C@H]1C[C@@]2(C)[C@@H](C[C@@H](O)[C@H]3[C@@]4(C)CC[C@@H](O)[C@@H](C)[C@@H]4CC[C@@]32C)/C1=C(\CCC=C(C)C)C(=O)NS(=O)(=O)c1ccccc1	–	96.1 µM	–	–
5.7 µM	CCCS(=O)(=O)NNC(=O)/C(CCC=C(C)C)=C1\[C@@H](OC(C)=O)C[C@@]2(C)[C@H]1C[C@@H](O)[C@H]1[C@@]3(C)CC[C@@H](O)[C@@H](C)[C@@H]3CC[C@@]12C	14	79.7 µM	–	–
13.4 µM	CC(=O)O[C@H]1C[C@@]2(C)[C@@H](C[C@@H](O)[C@H]3[C@@]4(C)CC[C@@H](O)[C@@H](C)[C@@H]4CC[C@@]32C)/C1=C(\CCC=C(C)C)C(=O)NNS(=O)(=O)c1ccc(C)cc1	4	48.2 µM	–	–

Compound	IC50 [3]	selectivity ratio [1]	IC50 [2]	Stability [4]	IC50 [5]
CC(=O)O[C@H]1C[C@@]2(C)[C@@H](C[C@@H](O)[C@H]3[C@@]4(C)CC[C@@H](O)[C@@H](C)[C@@H]4CC[C@@]32C)/C1=C(\CCC=C(C)C)C(=O)O [FUSIDIC ACID]	59 µM	> 3	> 194 µM	Stable	52.8 µM
C[C@H]1[C@H](OC(=O)CCC(=O)O)O[C@@H]2O[C@@]3(C)CC[C@H]4[C@H](C)CC[C@@H]1[C@@]24OO3 [ARTESUNATE]	0.004 µM	–	–	–	–
